Active and inactive are the calls of the source. The rule behind the calls is not given here.

This is an account of results in ChEMBL document CHEMBL4049391, “Vicinal diaryl azole-based urea derivatives as potential cholesterol lowering agents acting through inhibition of SOAT enzymes” (Eur J Med Chem, 2017).

The subject of series [1] is Rattus norvegicus. The series is described as follows: Acute toxicity in Wistar rat assessed as change in body weight at 60 mg/kg, po administered as repeated dosing for 28 days. The series is classed as organism-based. As to conditions: in vivo, 672 h.
The test system of series [2] is Rattus norvegicus. Description: Anti-atherosclerosis activity in high cholesterol diet-induced Wistar rat atherogenesis model assessed as reduction in VLDL-cholesterol level at 10 to 30 mg/kg, po administered once daily measured after 4 weeks. The series is classed as functional, organism-based.
For series [3], the species on record is Rattus norvegicus. Description: Inhibition of rat microsomal SOAT assessed as reduction in cholesteryl oleate formation from oleoyl co-enzyme A at 10 uM pretreated for 15 mins followed by oleoyl co-enzyme A addition measured after 10 mins by HPTLC method relative to control.
Series [4] has as its system Rattus norvegicus. Description: Anti-atherosclerosis activity in high cholesterol diet-induced Wistar rat atherogenesis model assessed as reduction in LDL-cholesterol level at 10 mg/kg, po administered once daily measured after 4 weeks. The series is classed as functional, organism-based.
The test system of series [5] is Rattus norvegicus. The series is described as follows: Acute toxicity in Wistar rat assessed as macroscopic lesions in lung at 2000 mg/kg, po administered as single dose measured up to 14 days. The series is classed as organism-based. The note with it: in vivo, 336 h.
Series [6] relates to Rattus norvegicus. Description: Acute toxicity in Wistar rat assessed as change in grooming behavior at 2000 mg/kg, po administered as single dose measured at 6 hrs post dose. The note with it: in vivo. The format is organism-based.
Series [7] concerns Rattus norvegicus. The series is described as follows: Acute toxicity in Wistar rat assessed as effect on gastrointestinal tract at 2000 mg/kg, po administered as single dose measured up to 14 days. The format is organism-based. As to conditions: in vivo, 336 h.
Series [8] relates to Rattus norvegicus. Description: Acute toxicity in Wistar rat assessed as macroscopic lesions in heart at 2000 mg/kg, po administered as single dose measured up to 14 days. As to conditions: in vivo, 336 h. The series is classed as organism-based.
For series [9], the system named is Rattus norvegicus. Description: Acute toxicity in Wistar rat assessed as changes in adrenal gland size at 2000 mg/kg, po administered as single dose measured up to 14 days. The format is organism-based. The note with it: in vivo, 336 h.
Series [10] relates to Rattus norvegicus. Description: Acute toxicity in Wistar rat assessed as effect on breathing at 2000 mg/kg, po administered as single dose measured up to 14 days. The format is organism-based. As to conditions: in vivo, 336 h.
For series [11], the system named is Rattus norvegicus. Description: Anti-atherosclerosis activity in high cholesterol diet-induced Wistar rat atherogenesis model assessed as effect on serum total cholesterol level at 30 mg/kg, po administered once daily measured after 4 weeks. The series is classed as functional.
Series [12] relates to Rattus norvegicus. Description: Anti-atherosclerosis activity in high cholesterol diet-induced Wistar rat atherogenesis model assessed as reduction in triglyceride level at 10 to 30 mg/kg, po administered once daily measured after 4 weeks. The format is functional, organism-based.

A word on the inhibition: it is the drop in the measured response relative to a control, in per cent. Take `CCCCNC(=O)Nc1ccc(-c2sc(C)nc2-c2ccc(C)cc2)cc1`: the Activity result with Rattus norvegicus [1], in the series with Rattus norvegicus [5], with Rattus norvegicus [6], in the series with Rattus norvegicus [7], with Rattus norvegicus [8] and in the series with Rattus norvegicus [9] was “Non-Toxic” in each case. Besides, the Activity result was “Non-Toxic” in the series on Rattus norvegicus [10] and 138 mg/dL with Rattus norvegicus [11]. Moreover, the result in the series on Rattus norvegicus [2], in the series on Rattus norvegicus [4] and with Rattus norvegicus [12] was inactive. The inhibition in the series filed under Rattus norvegicus [3] was 64.9%.
